Among the data in patent US9187465B2, “Oxazole tyrosine kinase inhibitors” (Sareum Limited, priority 2007, dated 2015) are IC50 values, retold here.

Assay type in all cases: biochemical
For one experiment, the target named is T1, human FLT4 (Homo sapiens, UniProt P35916).
T1 construct: a construct expressing the human FLT4 (789-1207) with an amino terminal GST tag; host or cells: Sf9 insect cells (baculovirus)
In words: FLT4 kinase assay (DELFIA enzyme inhibition). The following applies: read-out: FLT4 IC50. A digest of the protocol:
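GST-tagged human FLT4 (789-1207) from Sf9 cells phosphorylates a biotinylated MET (Tyr1253)-derived peptide for 30 min at room temperature, stopped with EDTA. Phosphopeptide is captured on Neutravidin and detected with Eu-labelled anti-phosphotyrosine antibody by time-resolved fluorescence; IC50 from % inhibition curves.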

A further experiment deals with T2, human Aurora A (Homo sapiens, UniProt O14965).
T2 construct: Histidine tag (N); host or cells: Sf9 insect cells (baculovirus)
T2 sequence (O14965 1-403): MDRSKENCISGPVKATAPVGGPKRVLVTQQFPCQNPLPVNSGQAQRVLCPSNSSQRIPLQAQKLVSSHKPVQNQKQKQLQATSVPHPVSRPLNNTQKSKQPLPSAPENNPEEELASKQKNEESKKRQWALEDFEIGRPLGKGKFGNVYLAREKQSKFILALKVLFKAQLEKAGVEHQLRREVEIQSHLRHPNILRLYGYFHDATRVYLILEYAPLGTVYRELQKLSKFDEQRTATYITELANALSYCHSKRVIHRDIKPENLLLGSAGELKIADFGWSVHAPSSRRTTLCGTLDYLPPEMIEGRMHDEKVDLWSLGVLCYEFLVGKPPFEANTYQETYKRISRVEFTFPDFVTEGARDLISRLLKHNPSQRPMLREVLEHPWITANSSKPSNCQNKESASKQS
In words: Aurora A kinase assay (DELFIA enzyme inhibition). The following applies: read-out: Aurora A IC50. A digest of the protocol: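 DELFIA read-out (time-resolved Eu fluorescence, 620 nm emission) after Neutravidin capture of biotinylated peptide substrate and antibody detection. Reaction: Ni-agarose-purified Aurora A, 30 min at room temperature, stopped with 100 mM EDTA.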

For the next experiment, the target named is T3, human FLT3 (Homo sapiens, UniProt P36888).
T3 construct: a construct expressing the human FLT3 (564-993) with an amino terminal GST tag; host or cells: Sf9 insect cells (baculovirus)
T3 sequence (P36888 564-993): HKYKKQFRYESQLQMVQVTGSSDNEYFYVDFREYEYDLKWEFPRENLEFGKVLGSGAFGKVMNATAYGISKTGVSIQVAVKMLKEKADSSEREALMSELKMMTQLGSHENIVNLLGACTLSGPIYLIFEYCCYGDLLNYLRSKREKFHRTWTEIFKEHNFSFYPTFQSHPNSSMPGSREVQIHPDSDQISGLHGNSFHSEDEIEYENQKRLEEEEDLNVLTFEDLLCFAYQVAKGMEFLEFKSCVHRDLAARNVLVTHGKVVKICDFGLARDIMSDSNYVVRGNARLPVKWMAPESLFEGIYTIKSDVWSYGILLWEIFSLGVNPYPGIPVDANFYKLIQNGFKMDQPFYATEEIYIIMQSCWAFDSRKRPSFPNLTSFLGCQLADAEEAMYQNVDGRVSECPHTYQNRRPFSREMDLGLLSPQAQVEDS
Put plainly: FLT3 kinase assay (DELFIA enzyme inhibition). Here is the method:
A GST-kinase fusion protein of 70 KDa was produced using sf9 baculovirus expression system, with a construct expressing the human FLT3 (564-993) with an amino terminal GST tag. The protein was purified by one-step affinity chromatography using glutathione-agarose.
FLT3 enzyme activity is determined using a Dissociation Enhanced Lanthanide Fluorescent Immunoassay (DELFIA) with a peptide substrate derived from the Gastrin Precursor (Tyr 87) peptide […] with a core sequence: EAYGW.
The amount of phosphorylated peptide produced is detected by means of a phospho-Tyrosine specific Europium-labelled antibody using Time-Resolved Fluorescence at Excitation 360-35 nm and Emission 620-35 nm.
Assay reactions are set up in a 25 uL final volume on a 96 well plate. […] The reaction is allowed to proceed for 30 minutes at room temperature before stopping with 100 μL Stop solution comprising of 100 mM EDTA, 1×BSA blocker in TBS (Perbio) and 0.05% Surfact-Amps20 (Perbio).
The stopped reaction is transferred to a black 96-well Neutravidin-coated plate (Perbio) and incubated for 30 minutes to capture the biotinylated peptide substrate. After washing wells 3 times with 200 uL TBS/T buffer, Anti-Phospho-Tyr-100 antibody labelled with Eu—N1 (Perkin Elmer AD0159) is added to all wells for 60 minutes at room temperature. After a repeat washing step, DELFIA Enhancement solution (Perkin Elmer) is added to all wells for 5 minutes and the fluorescence measured on a plate reader Analyst HT (Molecular Devices).
The % inhibition of the activity is calculated and plotted in order to determine the concentration of test compound required to inhibit 50% of the enzyme activity (IC50).

Structures can show the parent of a compound that is named as a salt.

T1 sequence (P35916 789-1207): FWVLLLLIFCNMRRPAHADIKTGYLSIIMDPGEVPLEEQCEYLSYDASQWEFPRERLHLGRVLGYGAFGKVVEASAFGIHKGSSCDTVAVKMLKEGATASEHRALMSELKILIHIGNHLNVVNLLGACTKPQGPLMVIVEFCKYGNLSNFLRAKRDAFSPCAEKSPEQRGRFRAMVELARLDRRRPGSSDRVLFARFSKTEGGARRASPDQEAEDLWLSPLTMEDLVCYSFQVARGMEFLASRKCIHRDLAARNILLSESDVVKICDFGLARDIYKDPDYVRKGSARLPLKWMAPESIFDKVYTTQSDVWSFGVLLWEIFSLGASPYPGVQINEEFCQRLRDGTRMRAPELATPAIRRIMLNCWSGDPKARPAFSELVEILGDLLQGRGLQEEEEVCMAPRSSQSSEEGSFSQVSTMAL

With `COc1cccc(Nc2nc(C(N)=O)c(-c3ccc(N4CCNCC4)cc3)o2)c1` [Example R-12, 2-(3-methoxyphenylamino)-5-(4-(piperazin-1-yl)phenyl)oxazole-4-carboxamide], the concentration for half-maximal inhibition (IC50) on human FLT4, at human Aurora A and against human FLT3 was less than 10 µM in each case.
Consider `NC(=O)c1nc(-c2ccccc2F)oc1-c1ccc(OCCN2CCCCC2)cc1` [Example F-26, 2-(2-fluorophenyl)-5-(4-(2-(piperidin-1-yl)ethoxy)phenyl)oxazole-4-carboxamide], for which the IC50 at human FLT4, on human Aurora A and on human FLT3 was less than 10 µM in each case.
Take `NC(=O)c1nc(-c2c(F)cccc2F)oc1-c1ccc(OCCN2CCC(O)CC2)cc1` [Example S-4, 2-(2,6-difluorophenyl)-5-(4-(2-(4-hydroxypiperidin-1-yl)ethoxy)phenyl)oxazole-4-carboxamide]: the 50% inhibitory concentration (IC50) on human FLT4 was less than 10 µM; at human Aurora A, less than 10 µM; against human FLT3 it was less than 100 µM.
With `COc1ccc(-c2nc(-c3c[nH]c4ccc(OC)cc34)[nH]c2C(N)=O)cc1` [Example B-2, 2-(5-methoxy-1H-indol-3-yl)-4-(4-methoxyphenyl)-1H-imidazole-5-carboxamide], the 50% inhibitory concentration (IC50) on human FLT4 was less than 10 µM; at human Aurora A it was less than 100 µM; on human FLT3, less than 10 µM.
As to `NC(=O)c1nc(-c2c(F)cccc2F)oc1Nc1cccc(N2CCNCC2)c1` [Example Q-12, 2-(2,6-difluorophenyl)-5-(3-(piperazin-1-yl)phenylamino)oxazole-4-carboxamide formate salt], the concentration for half-maximal inhibition (IC50) on human FLT4, on human Aurora A and on human FLT3 was less than 10 µM in each case.
As to `CN1CCN(c2ccc(-c3oc(-c4c(F)cccc4F)nc3C(N)=O)cc2)CC1` [Example H-1, 2-(2,6-difluorophenyl)-5-(4-(4-methylpiperazin-1-yl)phenyl)oxazole-4-carboxamide], the IC50 on human FLT4, on human Aurora A and on human FLT3 was less than 10 µM throughout.
Regarding `NC(=O)c1nc(-c2c(F)cccc2F)oc1Nc1ccc(-c2cc(CO)on2)cc1` [Example Q-33, 2-(2,6-difluorophenyl)-5-(4-(5-(hydroxymethyl)isoxazol-3-yl)phenylamino)oxazole-4-carboxamide], the IC50 at human FLT4 was less than 10 µM; at human Aurora A it was less than 10 µM; against human FLT3 it was less than 100 µM.
As for `CC(C)(C)OC(=O)NCC1CN(C(=O)c2ccc(Nc3oc(-c4c(F)cccc4F)nc3C(N)=O)cc2)CCO1` (stereo not drawn) [Example U-22, tert-butyl (4-(4-(4-carbamoyl-2-(2,6-difluorophenyl)oxazol-5-ylamino)benzoyl)morpholin-2-yl)methylcarbamate], the half-maximal inhibitory concentration (IC50) on human FLT4, at human Aurora A and at human FLT3 was less than 10 µM throughout.
Regarding `CN1CCN(C(=O)Nc2ccc(Nc3oc(-c4c(F)cccc4F)nc3C(N)=O)cc2)CC1` [Example V-2, N-(4-(4-carbamoyl-2-(2,6-difluorophenyl)oxazol-5-ylamino)phenyl)-4-methyl piperazine-1-carboxamide], the half-inhibitory concentration (IC50) on human FLT4, on human Aurora A and against human FLT3 was less than 10 µM each time.
Turning to `NC(=O)c1nc(-c2c(F)cccc2F)oc1Nc1ccc(N2CCNC(=O)C2)cc1` [Example Q-19, 2-(2,6-difluorophenyl)-5-(4-(3-oxopiperazin-1-yl)phenylamino)oxazole-4-carboxamide], the IC50 on human FLT4, at human Aurora A and against human FLT3 was less than 10 µM in each case.
Regarding `NC(=O)c1nc(-c2c(F)cccc2F)oc1Nc1ccc(C(=O)N2CCC[C@@H]2CO)cc1` [Example U-12, (R)-2-(2,6-difluorophenyl)-5-(4-(2-(hydroxymethyl)pyrrolidine-1-carbonyl)phenylamino)oxazole-4-carboxamide], the 50% inhibitory concentration (IC50) at human FLT4, at human Aurora A and against human FLT3 was less than 10 µM in each case.
Regarding `NC(=O)c1nc(-c2c(F)cccc2F)oc1Nc1ccc(C(=O)N2CCCCC2CO)cc1` (stereo not drawn) [Example U-14, 2-(2,6-difluorophenyl)-5-(4-(2-(hydroxymethyl)piperidine-1-carbonyl)phenylamino) oxazole-4-carboxamide], the IC50 at human FLT4, at human Aurora A and against human FLT3 was less than 10 µM in each case.
Regarding `NC(=O)c1nc(-c2c(F)cccc2F)oc1Nc1ccc(C(=O)N2CCC[C@H]2CO)cc1` [Example U-13, (S)-2-(2,6-difluorophenyl)-5-(4-(2-(hydroxymethyl)pyrrolidine-1-carbonyl)phenylamino)oxazole-4-carboxamide], the half-maximal inhibitory concentration (IC50) at human FLT4, at human Aurora A and against human FLT3 was less than 10 µM throughout.
Turning to `CC(C)(C)OC(=O)N1CCC(NC(=O)c2ccc(Nc3oc(-c4c(F)cccc4F)nc3C(N)=O)cc2)CC1` [Example U-20, tert-butyl 4-(4-(4-carbamoyl-2-(2,6-difluorophenyl)oxazol-5-ylamino)benzamido) piperidine-1-carboxylate], the values for the IC50 at human FLT4, on human Aurora A and at human FLT3 were less than 10 µM, less than 100 µM and less than 10 µM, respectively.
Regarding `NC(=O)c1nc(-c2c(F)cccc2F)oc1Nc1ccc(NC(=O)C2CCCNC2)cc1` (stereo not drawn) [Example V-4, N-(4-(4-carbamoyl-2-(2,6-difluorophenyl)oxazol-5-ylamino)phenyl)piperidine-3-carboxamide], the IC50 at human FLT4, on human Aurora A and against human FLT3 was less than 10 µM throughout.
With `NC(=O)c1nc(-c2c(F)cccc2Cl)oc1-c1ccc(OCCN2CCCCC2)cc1` [Example F-24, 2-(2-chloro-6-fluorophenyl)-5-(4-(2-(piperidin-1-yl)ethoxy)phenyl)oxazole-4-carboxamide], the IC50 at human FLT4, at human Aurora A and against human FLT3 was less than 10 µM each time.
As to `NC(=O)c1nc(-c2c(F)cccc2F)oc1Nc1ccc(C(=O)NC2CCNCC2)cc1` [Example U-21, 2-(2,6-difluorophenyl)-5-(4-(piperidin-4-ylcarbamoyl)phenylamino)oxazole-4-carboxamide], the half-inhibitory concentration (IC50) on human FLT4, at human Aurora A and at human FLT3 was less than 10 µM in each case.
For `NC(=O)c1nc(-c2c(F)cccc2F)oc1-c1cccnc1` [Example F-9, 2-(2,6-difluorophenyl)-5-(pyridin-3-yl)oxazole-4-carboxamideH], the IC50 on human FLT4 is less than 10 µM; at human Aurora A it was less than 100 µM; on human FLT3, less than 100 µM.
On to `CN(CCOc1ccc(-c2oc(-c3c(F)cccc3F)nc2C(N)=O)cc1)Cc1ccccc1` [Example S-11, 5-(4-(2-(benzyl(methyl)amino)ethoxy)phenyl)-2-(2,6-difluorophenyl)oxazole-4-carboxamide], for which the IC50 is less than 10 µM on human FLT4, less than 100 µM at human Aurora A and less than 10 µM on human FLT3.
Take `NC(=O)c1nc(-c2c(F)cccc2F)oc1-c1ccc(OCCCN2CCCCC2)cc1` [Example S-12, 2-(2,6-difluorophenyl)-5-(4-(3-(piperidin-1-yl)propoxy)phenyl)oxazole-4-carboxamide]: the half-maximal inhibitory concentration (IC50) on human FLT4, on human Aurora A and at human FLT3 was less than 10 µM in each case.

A word on the IC50: it is the midpoint of a concentration-inhibition curve.
